Assay results taken from patent publication EP4523686A1, “A SIGMA-1 RECEPTOR POSITIVE MODULATOR FOR ITS USE IN THE PREVENTION AND THE TREATMENT OF A PATHOLOGY” (priority 2023, dated 2025).
Several values for one entry are separate records, joined by “and”; a condition that tells them apart may be missing. Equal entries are not always repeated.

Tests used:
SIG-1R = target: T1, SIG-1R (Homo sapiens, UniProt Q99720); assay: In vitro binding to SIG-1R ([3H](+)-pentazocine, Jurkat cell membranes, CEREP); conditions: for inhibition of the binding / displacement of SIG-1R radioligand (in words): no concentration stated
T1 construct: incubated with 15 nM of [^3H](+)-pentazocine in membranes preparations from Jurkat human leukemic T cells; host or cells: Jurkat human leukemic T cells (membrane preparation)
Experimental: (§1) The assay was performed by CEREP (Celle l'Evescault, France) (study 100062023). SIG-1R binding was performed according to Ganapathy et al. (1999). Increasing drug concentrations (100 nM to 30 µM) were incubated with 15 nM of [^3H](+)-pentazocine in membranes preparations from Jurkat human leukemic T cells. Samples were incubated during 120 min at 37°C and nonspecific binding level was determined using 10 µM of haloperidol. S2R binding was performed according to Ganapathy et al. (1999). Increasing drug concentrations (100 nM to 30 µM) were incubated with 25 nM of [^3H]ditolyl-guanidine in membranes preparations from Jurkat human leukemic T cells. Samples were incubated during 60 min at room temperature and nonspecific binding level was determined using 10 µM of haloperidol. Assays were performed in duplicates and results were expressed as % of specific binding level.

S2R = target: T2, S2R (Homo sapiens, UniProt Q5BJF2); assay: In vitro binding to S2R ([3H]ditolyl-guanidine, Jurkat cell membranes, CEREP); conditions: membranes from Jurkat human leukemic T cells, 25 nM radioligand; read-out: IC50 for [3H]DTG binding (S2R / SIG-2R affinity)
T2 construct: 25 nM of [^3H]ditolyl-guanidine in membranes preparations from Jurkat human leukemic T cells; host or cells: Jurkat human leukemic T cells (membrane preparation)
Experimental: as §1

Wfs1^ΔExon8 mice [1] = assay: Spontaneous alternation in the Y-maze, Wolfram syndrome mouse model; format: in vivo; conditions: 1 mg/Kg IP, 20 min before the Y-maze session
Experimental: The Y-maze is made of grey polyvinylchloride. Each arm is 40 cm long, 13 cm high, 3 cm wide at the bottom, 10 cm wide at the top, and converging at an equal angle. Each mouse was placed at the end of one arm and allowed to move freely through the maze during an 8 min session. The series of arm entries, including possible returns into the same arm, were checked visually. An alternation is defined as entries into all three arms on consecutive occasions. The number of maximum alternations is therefore the total number of arm entries minus two and the percentage of alternation was calculated as (actual alternations / maximum alternations) × 100 (Maurice et al., 1996; Meunier et al., 2006, 2013). Exclusion criteria are locomotion < 10 or percentage of alternation < 25% or > 90%. Animals showing these readouts are excluded from the calculations. Attrition is routinely < 5% in this test.

Wfs1^ΔExon8 mice [2] = assay: Active avoidance in the rectangular water-maze, Wolfram syndrome mouse model; format: in vivo
Experimental: (§2) Non-spatial long-term memory was also examined using the successive training, place-learning procedure in the rectangular water-maze (Maurice et al., 1995, 2018). The apparatus is a black Plexiglas rectangular pool (30 × 60 × 36 cm high), filled with water at a high of 25 cm. The water temperature was maintained at 23 ± 1°C. A transparent Plexiglas platform (5 × 8.5 × 0.5 cm) was fixed in the southeast corner of the pool, 1 cm below the water surface. On acquisition days 1 and 2, each mouse was placed at the middle of the west side of the pool, facing the wall, and the latency to find the platform was recorded up to 60 s. The mouse was allowed to remain on it for 20 s, and then removed from the pool into its home cage. […] Each animal was run in this manner for a total of 5 trials on day 1, and 3 trials on day 2. […] A short-term memory (STM) index was defined as the mean difference in swimming duration between trial n and trial n-1 for trials 2 to 5 and 7 to 8. The STM index was analysed vs. zero level (= no improvement). On day 4, 48 h after the last training session, animals were tested for retention. The platform was removed. Each mouse was again placed at the starting point and observed for 60 s. The latency to reach the original platform location and the time spent on the platform location was recorded.

[3] = system: Dizocilpine-induced learning impairments in mice; assay: Step-through passive avoidance, Dizocilpine-induced learning impairments; format: in vivo
From the text: The apparatus is a two-compartments (15 × 20 × 15 cm high) box with one illuminated with white polyvinylchloride walls and the other darkened with black polyvinylchloride walls and a grid floor. A guillotine door separates each compartment. A 60 W lamp positioned 40 cm above the apparatus lights up the white compartment during the experiment. Scrambled foot shocks (0.3 mA for 3 s) could be delivered to the grid floor using a shock generator scrambler (Lafayette Instruments, Lafayette, USA). The guillotine door was initially closed during the training session. Each mouse was placed into the white compartment. After 5 s, the door was raised. When the mouse entered the darkened compartment and placed all its paws on the grid floor, the door is closed and the foot shocks delivered for 3 s. The step-through latency (STL-Tg), that is, the latency spent to enter the darkened compartment, and the number of vocalizations were recorded. The retention test was carried out 24 h after training. Each mouse was placed again into the white compartment. After 5 s, the door was raised. The step-through latency (STL-R) was recorded up to 300 s (Meunier et al., 2006, 2013; Villard et al., 2009, 2011). An exclusion criteria was STL-Tg and STL-R < 10 s. Animals showing these readouts are excluded from the calculations. Attrition is routinely < 5% in this test.

[4] = system: Aβ25-35-induced learning impairments in mice; assay: Active avoidance in the rectangular water-maze, Aβ25-35 model of Alzheimer's disease; format: in vivo
Experimental: Amyloid-β[25-35] peptide (Aβ25-35) was from Eurogentec (Angers, France). It was solubilized in distilled water at 3 mg/ml and stored at -20°C until use. Before injection, the peptide was incubated at 37°C for 4 days, allowing oligomerization. Control injection was performed with vehicle solution (distilled water), and intracerebroventricularly (ICV) injections were done as described previously (Maurice et al., 1996, 2019).
as §2
SIG-1R acting drugs are potent neuroprotective drugs in several neurodegenerative disease indications. Moreover, Blarcamesine, the drug presently tested in a clinical phase 3 assay (NCT04314934) was identified in the pharmacological model of AD induced in mice by ICV administration of oligomerized Aβ25-35 peptide (Villard et al., 2011). […]

[5] = Summary of the in vivo tests (active dose range); conditions: dizocilpine-induced amnesia and Aβ25-35 tests
From the text: A characteristic of SIG-1R positive modulators, likely due to the chaperone nature of SIG-1R, is to behave in vivo as agonists (Vavers et al., 2019).

[6] = probe test without platform, no drug injection

T1 sequence (Q99720 whole entry): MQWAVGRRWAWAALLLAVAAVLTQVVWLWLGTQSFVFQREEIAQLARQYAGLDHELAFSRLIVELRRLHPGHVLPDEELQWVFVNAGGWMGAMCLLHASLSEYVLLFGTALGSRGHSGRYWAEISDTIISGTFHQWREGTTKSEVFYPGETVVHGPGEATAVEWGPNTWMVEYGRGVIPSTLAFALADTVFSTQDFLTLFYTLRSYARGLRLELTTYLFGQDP
T2 sequence (Q5BJF2 whole entry): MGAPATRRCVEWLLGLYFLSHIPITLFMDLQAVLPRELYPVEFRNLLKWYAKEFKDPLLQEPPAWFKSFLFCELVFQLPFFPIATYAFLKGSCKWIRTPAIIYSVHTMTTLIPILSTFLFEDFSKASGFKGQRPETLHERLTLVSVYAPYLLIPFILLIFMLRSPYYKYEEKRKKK

COc1ccc(C(=O)OC2CC3CCC(C2)N3C)cc1OC (stereo not shown) [Convolamine, (8-methyl-8-azabicyclo[3.2.1]octan-3-yl) 3,4-dimethoxybenzoate]
IC50 (SIG-1R): > 30 µM | inhibition of [3H](+)-pentazocine binding to SIG-1R (in words) (SIG-1R; at concentrations < 10 µM): failed to inhibit | inhibition of the binding / displacement of SIG-1R radioligand (in words) (SIG-1R): did not inhibit | inhibition of the binding / displacement of SIG-1R radioligand (in words) (SIG-1R; listed as convolamine): does not displace | IC50 (S2R): 13 µM and ~13 µM | alteration of spontaneous alternation (in words) (Wfs1^ΔExon8 mice [1]): significantly attenuated | mild deficit of STM index (in words) (Wfs1^ΔExon8 mice [2]; IP 20 min before training sessions): not observed | latency to reach the platform location in the probe test (in words) (Wfs1^ΔExon8 mice [2]; [6]): attenuated these differences | number of platform location crossings in the probe test (in words) (Wfs1^ΔExon8 mice [2]; [6]): attenuated these differences | convolamine effect on step-through latency under NE-100 co-treatment (in words) ([3]; Convolamine 1 mg/Kg IP with NE-100 1 mg/Kg): blocked | Dizocilpine-induced decrease of step-through latency (in words) ([3]; at 1 mg/kg IP): attenuated significantly | Dizocilpine-induced increase of escape latency (in words) ([3]; at 0.3-3 mg/kg IP): attenuated significantly | STM (short-term memory index) in Aβ25-35-treated mice (in words) ([4]; at 1 mg/kg): significantly increased | Aβ25-35-induced decrease in number of platform location crossings (in words) ([4]; at 1 mg/kg IP): significantly attenuated | Aβ25-35-induced increase in latency in the retention session (in words) ([4]; at 1 mg/kg IP): significantly attenuated | active dose [5]: 0.3 to 3 mg/kg
